The values that follow come from PubChem BioAssay AID232 (DTP/NCI, 2004).

The test system of the experiment is Gardner 6C3HED lymphosarcoma ip, C3AKF1 mice, survival T/C. Nature of the experiment: NCI In Vivo Anticancer Drug Screen. Data for tumor model Lymphosarcoma Gardner 6C3HED (intraperitoneal) in C3AKF1 (CHKRF1) mice. To be noted: endpoint: survival time, mean or median, higher = longer survival. As to the method:
The antitumor activity of compounds was measured in mice bearing transplantable tumors. Survival or tumor size were measured and the results are expressed as the measurement made in the treated group (T) divided by the measurement made in the vehicle treated control group (C). The tumor model used in this assay is Lymphosarcoma Gardner 6C3HED (intraperitoneal) in C3AKF1 (CHKRF1) mice

[1] abbreviates: dose: 6.0 mg/kg/injection, schedule: Q01DX010 (ip), vehicle: saline.
Setting [2] is: dose: 12.0 mg/kg/injection, schedule: Q01DX010 (ip), vehicle: saline.
The mark [3] stands for this setting: dose: 16.0 mg/kg/injection, schedule: Q01DX010 (ip), vehicle: saline.
[4] abbreviates: dose: 62.5 mg/kg/injection, schedule: Q01DX010 (ip), vehicle: saline.
Where [5] appears, read: dose: 125.0 mg/kg/injection, schedule: Q01DX010 (ip), vehicle: saline.
Setting [6] is: dose: 250.0 mg/kg/injection, schedule: Q01DX010 (ip), vehicle: saline.
The mark [7] stands for this setting: dose: 500.0 mg/kg/injection, schedule: Q01DX010 (ip), vehicle: saline.
Where [8] appears, read: dose: 10.0 mg/kg/injection, schedule: Q01DX010 (ip), vehicle: saline.
Setting [9] is: dose: 20.0 mg/kg/injection, schedule: Q01DX010 (ip), vehicle: saline.
The mark [10] stands for this setting: dose: 8.0 mg/kg/injection, schedule: Q01DX010 (ip), vehicle: saline.
The mark [11] stands for this setting: dose: 32.0 mg/kg/injection, schedule: Q01DX010 (ip), vehicle: saline.
The mark [12] stands for this setting: dose: 64.0 mg/kg/injection, schedule: Q01DX010 (ip), vehicle: saline.
Where [13] appears, read: dose: 40.0 mg/kg/injection, schedule: Q01DX010 (ip), vehicle: saline.
Setting [14] is: dose: 31.3 mg/kg/injection, schedule: Q01DX010 (ip), vehicle: saline.
Where [15] appears, read: dose: 4.0 mg/kg/injection, schedule: Q01DX010 (ip), vehicle: other.
Setting [16] is: dose: 8.0 mg/kg/injection, schedule: Q01DX010 (ip), vehicle: other.
Where [17] appears, read: dose: 80.0 mg/kg/injection, schedule: Q01DX010 (ip), vehicle: saline.
Setting [18] is: dose: 2.0 mg/kg/injection, schedule: Q01DX010 (ip), vehicle: other.
[19] abbreviates: dose: 2.0 mg/kg/injection, schedule: Q01DX010 (ip), vehicle: saline.

Values joined by “and” are separate entries in the source; they are usually repeats but may differ in a detail not shown here. Equal values may be shown once. Inconclusive results and toxic doses are left out. Numbered stars: 1 amine (or outer) side, 2 acyl side, 3 side chain; on linkers, the order of the positions; unused ones are H or OH. Bridge positions count the residues as written; N and C are the ends. Square brackets hold non-standard residues; d marks the D form. Peptide text beside a SMILES is read from it. I, II: the chains in the order shown. Actinocin(9to1) = Cc1c2oc3c(C)ccc(C(=O)[*:1])c3nc-2c(C(=O)[*:2])c(N)c1=O; aThr = C[C@H](O)[C@H](N)C(=O)O; NMeV = CN[C@H](C(=O)O)C(C)C; Sar = CNCC(=O)O

In the case of `Nc1ncnc2[nH]ncc12`, the T/C reads like this: (dose: 1.5 mg/kg/injection, schedule: Q01DX010 (ip), vehicle: saline) 95 % of control and 110 % of control; (dose: 3.0 mg/kg/injection, schedule: Q01DX010 (ip), vehicle: saline) 100 % of control and 104 % of control; under setting [1], 95 % of control; under setting [2], 95 % of control; under setting [3], 90 % of control.
With `Nc1nc2n[nH]nc2c(=O)[nH]1`, the T/C runs as follows: (dose: 25.0 mg/kg/injection, schedule: Q01DX010 (ip), vehicle: alkali diluted with saline) 115 % of control; (dose: 50.0 mg/kg/injection, schedule: Q01DX010 (ip), vehicle: alkali diluted with saline) 100 % of control and 120 % of control.
For `O=c1cn[nH]c(=O)[nH]1`, the T/C was 100 % of control and 104 % of control under setting [4]; 104 % of control under setting [5]; 90 % of control and 95 % of control under setting [6]; 90 % of control under setting [7].
For the molecule `Cc1c2oc3c(C)ccc(C(=O)N[C@@H]4C(=O)N[C@H](C(C)C)C(=O)N5CCC[C@H]5C(=O)N(C)CC(=O)N(C)[C@@H](C(C)C)C(=O)O[C@H]4C)c3nc-2c(C(=O)N[C@@H]2C(=O)N[C@H](C(C)C)C(=O)N3CCC[C@H]3C(=O)N(C)CC(=O)N(C)[C@@H](C(C)C)C(=O)O[C@H]2C)c(N)c1=O` (I: [aThr][dV]P[Sar][NMeV] / II: [aThr][dV]P[Sar][NMeV]; ester I:1-I:C, II:1-II:C; linker I:N-II:N via Actinocin(9to1)), the T/C (dose: 0.01 mg/kg/injection, schedule: Q01DX010 (ip), vehicle: acid diluted with saline) is 100 % of control and 110 % of control; the T/C (dose: 0.03 mg/kg/injection, schedule: Q01DX010 (ip), vehicle: acid diluted with saline) is 120 % of control.
As to `S=P(N1CCOCC1)(N1CC1)N1CC1`, the T/C runs as follows: (dose: 2.5 mg/kg/injection, schedule: Q01DX010 (ip), vehicle: saline) 91 % of control and 100 % of control (2×); (dose: 5.0 mg/kg/injection, schedule: Q01DX010 (ip), vehicle: saline) 91 % of control and 92 % of control and 104 % of control; under setting [8], 89 % of control and 91 % of control and 104 % of control; under setting [9], 108 % of control and 121 % of control.
With `O=c1cnn(C2OC(CO)C(O)C2O)c(=O)[nH]1` (stereo unspecified), the T/C (dose: 200.0 mg/kg/injection, schedule: Q01DX010 (ip), vehicle: saline) was 105 % of control and 115 % of control; the T/C (dose: 400.0 mg/kg/injection, schedule: Q01DX010 (ip), vehicle: saline) was 115 % of control; the T/C (dose: 800.0 mg/kg/injection, schedule: Q01DX010 (ip), vehicle: saline) is 110 % of control and 120 % of control; the T/C (dose: 1600.0 mg/kg/injection, schedule: Q01DX010 (ip), vehicle: saline) was 95 % of control.
Consider `CC(=O)O[C@]1(C(C)=O)CC[C@H]2[C@@H]3C[C@H](C)C4=CC(=O)C=C[C@]4(C)[C@@]3(F)[C@@H](O)C[C@@]21C`, for which the T/C reads like this: (dose: 12.5 mg/kg/injection, schedule: Q01DX010 (sc), vehicle: steriod suspending solution) 111 % of control; (dose: 25.0 mg/kg/injection, schedule: Q01DX010 (sc), vehicle: steriod suspending solution) 92 % of control; (dose: 50.0 mg/kg/injection, schedule: Q01DX010 (sc), vehicle: steriod suspending solution) 88 % of control.
Consider `O=C(Nc1ccc(C2=NCCN2)cc1)c1cccc(C(=O)Nc2ccc(C3=NCCN3)cc2)c1`, for which the T/C reads like this: under setting [10], 183 % of control and 200 % of control; under setting [3], 272 % of control and 300 % of control; under setting [11], 279 % of control and 300 % of control; under setting [12], 279 % of control and 290 % of control.
In the case of `O=c1[nH]cc(F)c(=O)[nH]1`, the T/C was 158 % of control under setting [8], 295 % of control under setting [9] and 87 % of control under setting [13].
With `CCn1cnc2c(=S)nc[nH]c21`, the T/C by setting is: (dose: 15.6 mg/kg/injection, schedule: Q01DX010 (ip), vehicle: saline) 91 % of control and 104 % of control; under setting [14], 87 % of control and 89 % of control and 104 % of control; under setting [4], 114 % of control; under setting [5], 87 % of control and 104 % of control.
With `O=C(Nc1ccc(C2=NCCN2)cc1)c1ccc(C(=O)Nc2ccc(C3=NCCN3)cc2)c([N+](=O)[O-])c1`, the T/C reads like this: under setting [1], 218 % of control and 272 % of control; under setting [10], 300 % of control; under setting [2], 268 % of control and 300 % of control; (dose: 18.0 mg/kg/injection, schedule: Q01DX010 (ip), vehicle: saline) 163 % of control and 259 % of control.
`CCCCNc1ncnc2c1cnn2C`: the T/C under setting [14] was 100 % of control and 104 % of control; the T/C under setting [4] was 95 % of control and 100 % of control.
Regarding `CCOC(N)=O`, the T/C by setting is: under setting [5], 91 % of control and 100 % of control; under setting [7], 95 % of control.
Take `O=C(Nc1ccc(C2=NCCN2)cc1)c1ccc(C(=O)Nc2ccc(C3=NCCN3)cc2)cc1`: the T/C is, setting by setting: under setting [15], 179 % of control and 186 % of control; under setting [16], 277 % of control and 300 % of control; (dose: 16.0 mg/kg/injection, schedule: Q01DX010 (ip), vehicle: other) 229 % of control and 300 % of control; (dose: 32.0 mg/kg/injection, schedule: Q01DX010 (ip), vehicle: other) 175 % of control and 200 % of control; (dose: 64.0 mg/kg/injection, schedule: Q01DX010 (ip), vehicle: other) 166 % of control and 200 % of control.
In the case of `CC(=O)N(C)C`, the T/C under setting [4] was 86 % of control and 90 % of control; the T/C under setting [5] is 90 % of control and 95 % of control; the T/C under setting [6] was 95 % of control and 100 % of control; the T/C under setting [7] is 100 % of control.
With `O=NN(CCCl)C(=O)NCCCl`, the T/C was 300 % of control (dose: 6.25 mg/kg/injection, schedule: Q01DX010 (ip), vehicle: saline) and 257 % of control (dose: 16.25 mg/kg/injection, schedule: Q01DX010 (ip), vehicle: saline).
Turning to `c1ccc(CNc2ncnc3[nH]ncc23)cc1`, the T/C is 100 % of control and 119 % of control under setting [10]; 104 % of control and 105 % of control under setting [3]; 90 % of control and 95 % of control under setting [11]; 90 % of control and 95 % of control under setting [12].
In the case of `Cn1c(N)nc2nc[nH]c2c1=S`, the T/C is 96 % of control under setting [8], 96 % of control under setting [9], 107 % of control under setting [13] and 107 % of control under setting [17].
In the case of `O=C(Nc1ccc(C2=NCCCN2)cc1)c1ccc(C(=O)Nc2ccc(C3=NCCCN3)cc2)cc1`, the T/C was 227 % of control and 241 % of control (dose: 1.0 mg/kg/injection, schedule: Q01DX010 (ip), vehicle: other); 300 % of control under setting [18]; 86 % of control under setting [15].
Take `CC[C@]1(O)C[C@H]2CN(CCc3c([nH]c4ccccc34)[C@@](C(=O)OC)(c3cc4c(cc3OC)N(C=O)[C@H]3[C@@](O)(C(=O)OC)[C@H](OC(C)=O)[C@]5(CC)C=CCN6CC[C@]43[C@@H]65)C2)C1`: the T/C by setting is: (dose: 0.12 mg/kg/injection, schedule: Q01DX010 (ip), vehicle: saline) 250 % of control; (dose: 0.13 mg/kg/injection, schedule: Q01DX010 (ip), vehicle: saline) 285 % of control and 300 % of control.
With `O=C(Nc1ccc(NC2=NCCN2)cc1)c1ccc(C(=O)Nc2ccc(NC3=NCCN3)cc2)cc1`, the T/C runs as follows: under setting [19], 180 % of control; (dose: 4.0 mg/kg/injection, schedule: Q01DX010 (ip), vehicle: saline) 195 % of control and 265 % of control; under setting [10], 190 % of control; under setting [3], 115 % of control.
Turning to `CCOC(=O)NP(=O)(N1CC1(C)C)N1CC1(C)C` (stereo unspecified), the T/C by setting is: under setting [14], 103 % of control; under setting [4], 111 % of control.
As to `C=CC(CN1CC1)OC(C)=O` (stereo unspecified), under setting [19], the T/C was 92 % of control.
Take `O=C(Nc1ccc(C2=NCCCN2)cc1)c1ccc(NC(=O)c2ccc(C3=NCCCN3)cc2)cc1`: the T/C reads like this: under setting [18], 183 % of control and 250 % of control; under setting [15], 220 % of control and 300 % of control; under setting [16], 177 % of control and 187 % of control.
On to `CN(C)c1ccc(Nc2c3ccccc3nc3ccccc23)cc1`, for which the T/C (dose: 36.0 mg/kg/injection, schedule: Q01DX010 (ip), vehicle: saline) is 107 % of control; the T/C (dose: 54.0 mg/kg/injection, schedule: Q01DX010 (ip), vehicle: saline) is 185 % of control; the T/C under setting [17] is 240 % of control; the T/C (dose: 120.0 mg/kg/injection, schedule: Q01DX010 (ip), vehicle: saline) is 214 % of control.
